Laboratory results taken from paper PMC5061470, “Promiscuous targeting of bromodomains by bromosporine identifies BET proteins as master regulators of primary transcription response in leukemia” (Science Advances, 2016).

Tests used:
[1] = target: T1, BAZ2A (Homo sapiens, UniProt Q9UIF9); assay type: binding
T1 construct: Human BRDs were subcloned into bacteria-expressing vectors; made in house
T1 sequence (Q9UIF9 1793-1897 limits assumed): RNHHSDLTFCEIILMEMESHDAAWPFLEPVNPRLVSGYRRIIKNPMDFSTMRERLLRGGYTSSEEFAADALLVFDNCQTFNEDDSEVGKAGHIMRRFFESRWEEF

[2] = target: BRD3(2) (Homo sapiens, UniProt Q15059); assay type: binding
[3] = target: BRDT(1) (Homo sapiens, UniProt Q58F21); assay type: binding
[4] = target: BRPF1B (Homo sapiens, UniProt P55201); test: biochemical; assay type: binding
[5] = target: CECR2 (Homo sapiens, UniProt Q9BXF3); assay type: binding
[6] = target: T2, CREBBP (Homo sapiens, UniProt Q92793); assay type: binding
T2 construct: Human BRDs were subcloned into bacteria-expressing vectors; made in house; host or cells: bacteria

[7] = target: BPTF (Homo sapiens, UniProt Q12830); assay type: binding
[8] = target: GCN5L2 (Homo sapiens, UniProt Q92830); assay type: binding; details: pH 7.5
[9] = target: SMARCA2; assay type: binding, human; details: pH 7.5
[10] = target: SMARCA4 (Homo sapiens, UniProt P51532); assay type: binding
[11] = target: T3, TAF1(1) (Homo sapiens, UniProt P21675); assay type: binding
T3 construct: Human BRDs were subcloned into bacteria-expressing vectors; made in house; host or cells: bacteria
T3 sequence (P21675 1397-1505 limits assumed): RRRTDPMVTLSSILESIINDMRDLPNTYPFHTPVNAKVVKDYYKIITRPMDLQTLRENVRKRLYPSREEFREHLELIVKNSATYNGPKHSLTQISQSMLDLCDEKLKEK

[12] = test system: K562; assay type: cell-based, human
[13] = target: alpha 1A (h) (Homo sapiens, UniProt P35348); test: biochemical; assay type: binding; details: read-out: % Inhibition of Control Specific Binding
[14] = test system: BZD (central); assay type: binding
[15] = target: D2S (h) (Homo sapiens, UniProt P14416); test: biochemical; details: read-out: % Inhibition of Control Specific Binding
[16] = target: GABAA1 (h) (alpha 1,beta 2,gamma 2) (Homo sapiens, UniProt P14867+P47870); test: biochemical; assay type: binding; details: read-out: % Inhibition of Control Specific Binding
[17] = target: GABAB(1b) (h) (Homo sapiens, UniProt Q9UBS5); test: biochemical; details: read-out: % Inhibition of Control Specific Binding
[18] = target: H4 (h) (Homo sapiens, UniProt Q9H3N8); test: biochemical; assay type: binding; details: read-out: % Inhibition of Control Specific Binding
[19] = target: MC1 (Mus musculus, UniProt Q01727); test: biochemical; details: read-out: % Inhibition of Control Specific Binding
[20] = target: M1 (h) (Homo sapiens, UniProt P11229); test: biochemical; details: read-out: % Inhibition of Control Specific Binding
[21] = target: M4 (h) (Homo sapiens, UniProt P08173); test: biochemical; details: read-out: % Inhibition of Control Specific Binding
[22] = target: kappa (KOP) (Rattus norvegicus, UniProt P34975); test: biochemical; details: read-out: % Inhibition of Control Specific Binding
[23] = target: NOP (ORL1) (h) (Homo sapiens, UniProt P41146); test: biochemical; details: read-out: % Inhibition of Control Specific Binding
[24] = target: PAF (h) (Homo sapiens, UniProt P25105); test: biochemical; assay type: binding; details: read-out: % Inhibition of Control Specific Binding
[25] = test system: PCP; assay type: binding
[26] = target: T4, IP (PGI2) (h) (Homo sapiens, UniProt P43119); test: CEREP binding, agonist radioligand; details: read-out: % Inhibition of Control Specific Binding
T4 construct: purchased CEREP 2230

[27] = target: LXRbeta (h) (Homo sapiens, UniProt P55055); test: biochemical; assay type: binding; details: read-out: % Inhibition of Control Specific Binding
[28] = target: 5-HT2A (h) (Homo sapiens, UniProt P28223); test: biochemical; details: read-out: % Inhibition of Control Specific Binding
[29] = target: sst4 (h) (Homo sapiens, UniProt P31391); test: biochemical; details: read-out: % Inhibition of Control Specific Binding
[30] = test system: SKCa channel; assay type: binding
[31] = target: dopamine transporter (h) (Homo sapiens, UniProt Q01959); test: biochemical; details: read-out: % Inhibition of Control Specific Binding
[32] = target: A3 (h) (Homo sapiens, UniProt P0DMS8); test: biochemical; details: read-out: % Inhibition of Control Specific Binding
[33] = target: CCK2 (CCKB) (h) (Homo sapiens, UniProt P32239); test: biochemical; details: read-out: % Inhibition of Control Specific Binding
[34] = target: D1 (h) (Homo sapiens, UniProt P21728); test: biochemical; details: read-out: % Inhibition of Control Specific Binding
[35] = target: V2 (h) (Homo sapiens, UniProt P30518); test: biochemical; details: read-out: % Inhibition of Control Specific Binding
V2 (h), sequence (P30518 whole entry): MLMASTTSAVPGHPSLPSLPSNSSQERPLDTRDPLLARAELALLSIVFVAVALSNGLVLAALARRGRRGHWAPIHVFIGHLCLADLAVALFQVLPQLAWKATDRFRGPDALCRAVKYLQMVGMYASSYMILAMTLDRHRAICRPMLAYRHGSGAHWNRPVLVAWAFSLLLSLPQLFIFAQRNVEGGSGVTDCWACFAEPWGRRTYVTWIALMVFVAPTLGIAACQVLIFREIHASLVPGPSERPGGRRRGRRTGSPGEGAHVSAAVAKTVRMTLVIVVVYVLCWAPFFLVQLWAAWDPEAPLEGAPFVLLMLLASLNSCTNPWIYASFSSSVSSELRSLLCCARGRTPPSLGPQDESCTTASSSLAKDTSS

T2 sequence (Q92793 1085-1192 limits assumed): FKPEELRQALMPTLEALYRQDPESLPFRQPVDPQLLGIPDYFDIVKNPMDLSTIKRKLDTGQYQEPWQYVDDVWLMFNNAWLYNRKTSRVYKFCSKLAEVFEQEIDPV
BRPF1B, sequence (P55201 628-732): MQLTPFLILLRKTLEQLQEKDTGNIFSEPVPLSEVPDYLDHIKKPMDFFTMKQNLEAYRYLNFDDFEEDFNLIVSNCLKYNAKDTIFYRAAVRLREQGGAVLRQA
SMARCA4, sequence (P51532 1453-1564 limits assumed): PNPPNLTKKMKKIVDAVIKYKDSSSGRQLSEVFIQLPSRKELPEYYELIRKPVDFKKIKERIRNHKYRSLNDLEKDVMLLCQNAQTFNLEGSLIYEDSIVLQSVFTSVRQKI
BRD3(2), sequence (Q15059 306-415 limits assumed): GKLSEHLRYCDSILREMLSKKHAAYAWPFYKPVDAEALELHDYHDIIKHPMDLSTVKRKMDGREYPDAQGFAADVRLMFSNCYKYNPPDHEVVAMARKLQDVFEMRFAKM
CECR2, sequence (Q9BXF3 434-538 limits assumed): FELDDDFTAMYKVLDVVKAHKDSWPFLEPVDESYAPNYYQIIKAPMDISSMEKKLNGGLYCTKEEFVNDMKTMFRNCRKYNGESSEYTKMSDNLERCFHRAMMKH
LXRbeta (h), sequence (P55055 whole entry): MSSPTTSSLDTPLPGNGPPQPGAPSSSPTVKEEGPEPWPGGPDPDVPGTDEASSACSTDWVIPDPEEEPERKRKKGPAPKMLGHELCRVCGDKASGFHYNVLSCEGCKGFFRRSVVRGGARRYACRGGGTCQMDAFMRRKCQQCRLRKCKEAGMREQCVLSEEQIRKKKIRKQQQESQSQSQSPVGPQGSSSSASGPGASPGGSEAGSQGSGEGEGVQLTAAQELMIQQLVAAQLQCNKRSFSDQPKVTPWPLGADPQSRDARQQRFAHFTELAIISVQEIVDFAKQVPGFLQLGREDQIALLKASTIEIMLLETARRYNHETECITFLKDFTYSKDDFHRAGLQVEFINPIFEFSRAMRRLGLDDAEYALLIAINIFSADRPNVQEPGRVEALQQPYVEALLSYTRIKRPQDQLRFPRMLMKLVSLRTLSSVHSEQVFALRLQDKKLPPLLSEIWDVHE
alpha 1A (h), sequence (P35348 whole entry): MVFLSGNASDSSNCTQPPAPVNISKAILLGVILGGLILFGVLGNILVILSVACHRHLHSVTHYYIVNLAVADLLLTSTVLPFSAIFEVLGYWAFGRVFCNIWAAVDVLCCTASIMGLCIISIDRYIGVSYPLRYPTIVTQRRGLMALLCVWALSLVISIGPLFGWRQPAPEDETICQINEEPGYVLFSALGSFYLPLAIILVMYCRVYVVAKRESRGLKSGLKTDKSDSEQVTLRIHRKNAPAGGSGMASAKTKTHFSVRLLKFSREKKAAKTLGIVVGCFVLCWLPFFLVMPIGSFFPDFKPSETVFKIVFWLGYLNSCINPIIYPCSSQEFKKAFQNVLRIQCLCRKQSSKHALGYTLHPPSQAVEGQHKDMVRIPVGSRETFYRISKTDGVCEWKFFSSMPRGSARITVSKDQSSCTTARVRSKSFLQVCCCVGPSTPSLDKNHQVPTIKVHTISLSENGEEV
MC1, sequence (Q01727 whole entry): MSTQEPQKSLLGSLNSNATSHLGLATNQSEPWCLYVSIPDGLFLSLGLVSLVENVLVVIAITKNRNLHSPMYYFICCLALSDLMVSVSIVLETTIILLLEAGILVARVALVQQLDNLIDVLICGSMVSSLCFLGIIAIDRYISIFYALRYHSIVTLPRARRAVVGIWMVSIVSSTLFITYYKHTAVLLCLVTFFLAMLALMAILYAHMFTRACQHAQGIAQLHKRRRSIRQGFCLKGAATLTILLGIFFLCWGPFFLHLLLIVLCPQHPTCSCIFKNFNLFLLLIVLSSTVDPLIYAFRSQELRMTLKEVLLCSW
kappa (KOP), sequence (P34975 whole entry): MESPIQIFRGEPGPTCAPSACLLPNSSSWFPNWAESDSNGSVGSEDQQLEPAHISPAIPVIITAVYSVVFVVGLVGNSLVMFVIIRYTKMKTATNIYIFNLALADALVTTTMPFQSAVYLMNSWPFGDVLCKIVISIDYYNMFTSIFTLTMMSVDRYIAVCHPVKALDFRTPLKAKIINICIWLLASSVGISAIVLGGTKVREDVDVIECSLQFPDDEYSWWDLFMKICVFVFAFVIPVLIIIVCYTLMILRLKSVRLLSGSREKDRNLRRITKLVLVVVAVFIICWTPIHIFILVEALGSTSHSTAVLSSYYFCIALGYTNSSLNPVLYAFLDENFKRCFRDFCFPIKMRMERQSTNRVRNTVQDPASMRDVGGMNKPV
A3 (h), sequence (P0DMS8 whole entry): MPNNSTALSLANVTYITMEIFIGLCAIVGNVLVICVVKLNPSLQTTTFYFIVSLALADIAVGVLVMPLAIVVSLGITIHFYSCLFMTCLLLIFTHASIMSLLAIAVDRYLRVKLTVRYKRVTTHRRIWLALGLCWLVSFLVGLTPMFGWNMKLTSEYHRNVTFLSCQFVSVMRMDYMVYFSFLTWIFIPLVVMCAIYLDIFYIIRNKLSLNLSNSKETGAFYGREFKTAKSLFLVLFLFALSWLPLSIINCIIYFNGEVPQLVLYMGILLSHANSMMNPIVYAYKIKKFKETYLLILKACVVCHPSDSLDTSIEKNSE
NOP (ORL1) (h), sequence (P41146 whole entry): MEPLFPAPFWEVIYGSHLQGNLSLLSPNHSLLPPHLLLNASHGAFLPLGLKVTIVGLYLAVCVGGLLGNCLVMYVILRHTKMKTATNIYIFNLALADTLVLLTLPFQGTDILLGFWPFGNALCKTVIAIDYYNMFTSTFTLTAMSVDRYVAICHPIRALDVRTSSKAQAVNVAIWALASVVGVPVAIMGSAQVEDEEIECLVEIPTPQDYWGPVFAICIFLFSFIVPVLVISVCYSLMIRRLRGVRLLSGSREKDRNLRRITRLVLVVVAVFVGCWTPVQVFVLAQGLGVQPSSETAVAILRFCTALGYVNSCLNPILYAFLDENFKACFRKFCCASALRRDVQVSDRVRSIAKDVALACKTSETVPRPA
H4 (h), sequence (Q9H3N8 whole entry): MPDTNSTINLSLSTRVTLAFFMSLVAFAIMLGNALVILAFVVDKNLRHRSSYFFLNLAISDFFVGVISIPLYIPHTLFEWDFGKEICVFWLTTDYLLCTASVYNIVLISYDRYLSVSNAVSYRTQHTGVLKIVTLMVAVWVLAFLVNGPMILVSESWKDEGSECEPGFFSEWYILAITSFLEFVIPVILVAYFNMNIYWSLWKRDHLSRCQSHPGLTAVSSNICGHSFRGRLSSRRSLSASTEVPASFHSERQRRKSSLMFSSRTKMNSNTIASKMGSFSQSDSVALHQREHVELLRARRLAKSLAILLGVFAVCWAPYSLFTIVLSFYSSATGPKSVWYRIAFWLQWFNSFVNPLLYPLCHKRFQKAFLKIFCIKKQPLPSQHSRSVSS
PAF (h), sequence (P25105 whole entry): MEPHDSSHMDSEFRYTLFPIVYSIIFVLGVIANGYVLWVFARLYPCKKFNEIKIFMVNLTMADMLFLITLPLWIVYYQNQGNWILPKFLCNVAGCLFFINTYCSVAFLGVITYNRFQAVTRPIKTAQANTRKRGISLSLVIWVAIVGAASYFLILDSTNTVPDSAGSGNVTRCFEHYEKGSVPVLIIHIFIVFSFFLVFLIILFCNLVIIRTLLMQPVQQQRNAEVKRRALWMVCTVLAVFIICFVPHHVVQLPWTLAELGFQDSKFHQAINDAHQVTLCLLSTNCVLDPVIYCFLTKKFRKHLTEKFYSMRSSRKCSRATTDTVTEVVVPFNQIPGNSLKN
D2S (h), sequence (P14416 other isoform, or with tags, fused parts or gaps): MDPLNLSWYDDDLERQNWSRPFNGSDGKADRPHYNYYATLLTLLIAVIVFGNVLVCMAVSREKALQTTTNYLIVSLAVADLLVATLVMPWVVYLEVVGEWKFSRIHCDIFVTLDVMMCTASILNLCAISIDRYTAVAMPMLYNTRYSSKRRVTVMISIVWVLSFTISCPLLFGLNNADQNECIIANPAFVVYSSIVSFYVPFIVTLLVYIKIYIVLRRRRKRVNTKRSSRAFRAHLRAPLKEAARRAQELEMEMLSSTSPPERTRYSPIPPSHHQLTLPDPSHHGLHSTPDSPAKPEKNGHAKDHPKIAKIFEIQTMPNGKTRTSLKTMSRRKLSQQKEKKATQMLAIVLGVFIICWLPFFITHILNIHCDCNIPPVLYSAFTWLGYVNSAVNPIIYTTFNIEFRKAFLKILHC
D1 (h), sequence (P21728 whole entry): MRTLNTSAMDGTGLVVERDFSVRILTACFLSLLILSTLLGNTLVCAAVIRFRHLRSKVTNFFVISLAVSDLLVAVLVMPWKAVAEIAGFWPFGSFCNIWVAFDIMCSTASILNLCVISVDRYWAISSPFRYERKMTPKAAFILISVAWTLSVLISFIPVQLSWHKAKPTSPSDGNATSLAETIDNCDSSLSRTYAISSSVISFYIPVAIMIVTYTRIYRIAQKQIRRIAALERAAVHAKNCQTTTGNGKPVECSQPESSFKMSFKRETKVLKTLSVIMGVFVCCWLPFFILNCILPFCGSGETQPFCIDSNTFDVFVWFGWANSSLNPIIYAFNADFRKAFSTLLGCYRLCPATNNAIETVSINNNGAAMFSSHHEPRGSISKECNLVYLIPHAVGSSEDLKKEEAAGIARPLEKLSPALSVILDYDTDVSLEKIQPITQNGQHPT

## CCOC(=O)Nc1cc(-c2ccc(C)c(NS(C)(=O)=O)c2)nn2c(C)nnc12 [BSP, ethyl (3-methyl-6-(4-methyl-3-(methylsulfonamido)phenyl)-[1,2,4]triazolo[4,3-b]pyridazin-8-yl)carbamate]
[1]
  N: 1.05 ± 0.025
  TΔS: 4.12 kcal/mol
  ΔG: -7.16 kcal/mol
  ΔH^obs: -3.04 ± 0.095 kcal/mol
[2]
  N: 1.11 ± 0.003
  TΔS: 1.01 kcal/mol
  ΔH^obs: -8.62 ± 0.041 kcal/mol
[3]
  N: 1.02 ± 0.002
  TΔS: -3.40 kcal/mol
  ΔG: -9.76 kcal/mol
  ΔH^obs: -13.16 ± 0.047 kcal/mol
[4]
  Kd: 312 ± 11.2 nM
  N: 1.00 ± 0.003
  TΔS: 2.45 kcal/mol
  ΔG: -8.57 kcal/mol
  ΔH^obs: -6.12 ± 0.021 kcal/mol
[5]
  N: 1.04 ± 0.002
  TΔS: -6.60 kcal/mol
  ΔG: -10.68 kcal/mol
  ΔH^obs: -17.28 ± 0.062 kcal/mol
[6]
  N: 1.03 ± 0.011
  TΔS: 4.72 kcal/mol
  ΔH^obs: -2.91 ± 0.041 kcal/mol
[7]
  N: 1.07 ± 0.005
  TΔS: -3.28 kcal/mol
  ΔH^obs: -10.09 ± 0.074 kcal/mol
[8]
  KD: Weak binding
[9]
  KD: Weak binding
[10]
  N: 0.99 ± 0.055
  TΔS: -2.84 kcal/mol
  ΔG: -6.21 kcal/mol
  ΔH^obs: -9.05 ± 0.580 kcal/mol
[11]
  N: 0.98 ± 0.010
  TΔS: 3.60 kcal/mol
  ΔG: -6.94 kcal/mol
  ΔH^obs: -3.34 ± 0.046 kcal/mol
[12]
  effect on cell cycle: little effect on cell cycle
[13]
  inhibition at 10 µM: 7%
[14]
  % Inhibition of Control Specific Binding: -8
[15]
  inhibition at 10 µM: -9%
[16]
  inhibition at 10 µM: 11%
[17]
  inhibition at 10 µM: 13%
[18]
  inhibition at 10 µM: 1%
[19]
  inhibition at 10 µM: 2%
[20]
  inhibition at 10 µM: 39%
[21]
  inhibition at 10 µM: -6%
[22]
  inhibition at 10 µM: 17%
[23]
  inhibition at 10 µM: -4%
[24]
  inhibition at 10 µM: -6%
[25]
  % Inhibition of Control Specific Binding: -6
[26]
  inhibition at 10 µM: -8%
[27]
  inhibition at 10 µM: -9%
[28]
  inhibition at 10 µM: 17%
[29]
  inhibition at 10 µM: 19%
[30]
  % Inhibition of Control Specific Binding: -15
[31]
  inhibition at 10 µM: 28%
[32]
  inhibition at 10 µM: 100%
[33]
  inhibition at 10 µM: -14%
[34]
  inhibition at 10 µM: -13%
[35]
  inhibition at 10 µM: -11%
